# According to publication PMC10861593, “Kisspeptin-10 binding to Gpr54 in osteoclasts prevents bone loss by activating Dusp18-mediated dephosphorylation of Src” (Nature Communications, 2024):
# “Also recorded” adds a separate entry of the source.
# Columns and labels:
# [1] = tested on: osteoblast differentiation; conditions: in vitro, KP-10 5 and 50 μM; ref 46 (Son et al.); cited from earlier work
# Text: Typically, GPCR activation with increasing of ligand concentration generates different signalings and phenotypes. […] Furthermore, we foun ...
# [2] = tested on: osteoclast formation from BMMs; assay: TRAP staining of osteoclast formation from BMMs; type: cell-based, mouse
# [3] = tested on: osteoblast differentiation; assay: osteoblast differentiation; type: cell-based, mouse
# Experimental: For osteoblast differentiation analyses in vitro, we isolated bone marrow mesenchymal stem cells (MSCs) from femurs and tibias of 8-week-old WT and Kiss1^−/−, Gpr54^−/− and Dusp18^−/− mice using a 1 ml syringe with a 26 G needle. MSCs were seeded into 12-well plates at a concentration of 1 × 10^5 cells per well. Cells were incubated with 50 µg/mL ascorbic acid, 10 mmol/L beta-glycerophosphate and 10 nmol/L dexamethasone. The medium was replaced every 2 days during the incubation period. Alkaline phosphatase (ALP) activity was assayed using the assay mixtures containing 0.1 M 2-amino-2-methyl-1-propanol, 1 mM MgCl2, 8 mM p-nitrophenylphosphate disodium (Sigma). For determination of mineralization, cells were fixed with 95% ethanol and stained with AgNO3 by the von Kossa method.
# [4] = tested on: Dusp18 / Gpr54 interaction; assay: Co-IP: interaction of Dusp18 with Gpr54 in RAW264.7 cells; type: cell-based, mouse
# Experimental: Beads were analyzed by phosphatase activity assay (a), mass spectrometry assay (b), IB analysis (c) and quantification of protein levels (d). e, f Protein co-localization was analyzed by IF staining in primary pre-osteoclast with 10 nM Kp-10 treatment for 20 min. […] Scale bar, 50 µm. g, h binding affinity was measured by SPR binding analysis. […] Data represent means ± SEM. P values were determined by one-way ANOVA analysis (a, d, j, l) or two-tailed Student’s t-test (f). Representative results were obtained from at least three independent experiments. Source data are provided as a Source Data file.
# (§1) Whole-cell proteins were extracted using 1x RIPA buffer (25 mM Tris, pH7.5, 150 mM NaCl, 0.5% Sodium deoxycholate, 1% Triton-X-100) supplemented with protease inhibitors (Complete Mini, Roche) and phosphatase inhibitors (phosphatase inhibitor cocktail set I and II, Calbiochem). Immunoprecipitation and immunoblotting with indicated antibodies were performed as described in Supplementary Table 1. Image Jsoftware (V1.52) was used for quantification analysis. Uncropped and unprocessed blots are presented in the Supplementary Information file.
# [5] = tested on: phosphatases co-immunoprecipitated with Gpr54; assay: mass spectrometry of anti-Gpr54 IP; type: cell-based, mouse; conditions: RAW264.7 cells, Kp-10 20 min
# Experimental: For mass spectrometry (MS) analysis, anti-Gpr54 IP was performed with the whole-cell lysates derived from two 10-cm dishes of RAW264.7 cells with or without Kp-10 treatment for 20 min. The protein complexes after Co-IP were extensively washed with PBS, followed by on-bead digestion. Mass spectra were acquired on a Q-Exactive mass spectrometer (Thermo Scientific, Bremen, Germany). The raw mass spectrometry data were searched against the mouse IPI databases (version 3.86, released on June 28, 2012) using the Proteome Discoverer software suite (Thermo Scientific, San Jose, USA) utilizing a label-free quantification feature. The mass spectrometry proteomics data have been deposited to the ProteomeXchange Consortium via the PRIDE[52] partner repository with the dataset identifier PXD038433.
# [6] = tested on: osteoclast bone resorption; assay: pit assay (bone resorption); type: cell-based, mouse; conditions: for bone resorption: dentin slices, 5–7 days
# [7] = tested on: DUSP18 / GPR54 interaction; assay: Co-IP: interaction of DUSP18 with GPR54 in transfected 293T cells; type: cell-based, human; conditions: 293T cells transfected with DUSP18-HA and GPR54-Flag, Kp-10 (10 nM) 20 min
# Experimental: Data represent means ± SEM. P values were determined by one-way ANOVA analysis (b, c, e, g, i, k). Representative results were obtained from at least three independent experiments. Source data are provided as a Source Data file.
# as §1
# Supplementary Fig. 6 a, b IB and quantification of protein levels analysis. […] Error bars are ± SEM. P-values were determined by two-tailed Student’s t-test (b, e) or by one-way ANOVA analysis (h, j). *P <0.05, **P <0.01, ***P <0.001, ****P <0.0001. Representative results were observed from at least three independent experiments. Source data are provided as a Source Data file.
# [8] = tested on: Gpr54, Src and Dusp18 co-localization; assay: IF staining / TIRF microscopy co-localization in pre-osteoclasts; type: cell-based, mouse; conditions: 10 nM Kp-10 20 min
# Experimental: For endogenous IF staining, BMMs were seeded on confocal dishes and induced by 50 ng/ml RANKL and 10 ng/ml M-CSF for 2 days, and subsequently incubated with or without Kp-10 for 20 min. Cells were fixed in 10% TCA and incubated with anti-Gpr54 (Cell Signaling Technologies, 13776, 1:100), anti-Dusp18 (Santa Cruz., sc-376923, 1:100), or anti-Src (Cell Signaling Technologies, 2110, 1:400) or anti-Src (Cell Signaling Technologies, 2109, 1:400) overnight. IF staining of membrane colocation of Gpr54 with Src or Dusp18, and Src with Dusp18 were detected by Alexa Fluor™ 594 Tyramide SuperBoost™ Kit (Invitrogen, B40925) and Alexa Fluor™ 488 Tyramide SuperBoost™ Kit (Invitrogen, B40912) according to manufacturer’s instructions. The images were obtained by total internal reflection fluorescence (TIRF) microscopy (Ti2-E + H-TIRF, Nikon).
substance,measurement,setting,value
Kisspeptin-10 [Kp-10],osteoblast differentiation at 5 and 50 μM,[1],stimulated osteoblast differentiation in vitro
same,osteoclast formation,[2]; Arrb1 knockout BMMs,still suppressed by Kp-10; also recorded: still blocked osteoclast formation
same,osteoclast formation,[2]; Arrb2 knockout BMMs,still suppressed by Kp-10; also recorded: still blocked osteoclast formation
same,"osteoblast differentiation, low dose",[3]; Kp-10 0.01 nM and 0.1 nM,effectively suppressed osteoblast differentiation
same,osteoblast differentiation,"[3]; upon Kp-10 stimulation, ALP and von Kossa staining",dose-dependently suppressed
same,"recruitment of Src and Dusp18 by Gpr54, 10 nM","[4]; 10 nM Kp-10, Co-IP and IF",more significantly recruited
same,interaction of Dusp18 with Gpr54,"[4]; RAW264.7 cells, indicated dose of Kp-10 for 20 min",dose-dependently induced the interaction of Dusp18 with Gpr54
same,phosphatases increasing after Kp-10 stimulation,[5],"three increasing phosphatases including DUSP18, PTPN6 and PPP1CA were identified"
same,"bone resorption (pit formation, pit depth)",[6]; Dusp18 WT osteoclasts,bone resorption was suppressed
same,bone resorption,[6]; Gpr54-WT osteoclasts,suppressed bone resorption
same,bone resorption,[6]; Gpr54 knockout osteoclasts,did not have a significant effect
same,interaction of DUSP18 with GPR54,[7],dose-dependently induced the interaction
same,co-localization of Dusp18 with Gpr54 in the plasma membrane,[8],colocalized with Gpr54 in the plasma membrane especially after treatment of Kp-10
same,co-localization of Dusp18 with Src in the plasma membrane,[8],colocalized with Src in the plasma membrane especially after treatment with Kp-10
same,co-localization of Src with Gpr54 on the membrane,[8],co-localized on the membrane with Gpr54 especially after Kp-10 stimulation
